{"source": "PubChem BioAssay AID212", "about": "(DTP/NCI, 2004)", "system": "BDF1 mice, colon carcinoma 38 sc, T/C %", "test": "NCI In Vivo Anticancer Drug Screen. Data for tumor model Colon Carcinoma 38 (subcutaneous) in B6D2F1 (BDF1) mice", "procedure": "The antitumor activity of compounds was measured in mice bearing transplantable tumors. Survival or tumor size were measured and the results are expressed as the measurement made in the treated group (T) divided by the measurement made in the vehicle treated control group (C). The tumor model used in this assay is Colon Carcinoma 38 (subcutaneous) in B6D2F1 (BDF1) mice", "note": "Where “and” joins values, the source holds several entries; their conditions need not be identical. Identical values can stand only once. Inconclusive results are not listed.", "data": [{"smiles": "O=NN(CCCl)C(=O)NC1CCCCC1", "values": [{"measurement": "T/C", "setting": "endpoint: median tumor weight (est.), dose: 6.25 mg/kg/injection, schedule: Q07DX002 (ip), vehicle: Klucel (hydroxypropylcellulose) (HPC), higher = larger tumour", "value": "91 % of control"}, {"measurement": "T/C", "setting": "endpoint: median tumor weight (est.), dose: 10.0 mg/kg/injection, schedule: Q07DX003 (ip), vehicle: Klucel (hydroxypropylcellulose) (HPC), higher = larger tumour", "value": "71 % of control"}, {"measurement": "T/C", "setting": "endpoint: median tumor weight (est.), dose: 10.0 mg/kg/injection, schedule: Q07DX003 (ip), vehicle: carboxymethylcellulose (CMC), higher = larger tumour", "value": "53 % of control"}, {"measurement": "T/C", "setting": "endpoint: median tumor weight (est.), dose: 12.5 mg/kg/injection, schedule: Q07DX002 (ip), vehicle: Klucel (hydroxypropylcellulose) (HPC), higher = larger tumour", "value": "64 % of control"}, {"measurement": "T/C", "setting": "endpoint: median tumor weight (est.), dose: 20.0 mg/kg/injection, schedule: Q07DX003 (ip), vehicle: Klucel (hydroxypropylcellulose) (HPC), higher = larger tumour", "value": "72 % of control"}, {"measurement": "T/C", "setting": "endpoint: median tumor weight (est.), dose: 20.0 mg/kg/injection, schedule: Q07DX003 (ip), vehicle: carboxymethylcellulose (CMC), higher = larger tumour", "value": "47 % of control"}, {"measurement": "T/C", "setting": "endpoint: median tumor weight (est.), dose: 25.0 mg/kg/injection, schedule: Q07DX002 (ip), vehicle: Klucel (hydroxypropylcellulose) (HPC), higher = larger tumour", "value": "36 % of control"}, {"measurement": "T/C", "setting": "endpoint: median tumor weight (est.), dose: 40.0 mg/kg/injection, schedule: Q07DX003 (ip), vehicle: Klucel (hydroxypropylcellulose) (HPC), higher = larger tumour", "value": "44 % of control"}, {"measurement": "T/C", "setting": "endpoint: median tumor weight (est.), dose: 40.0 mg/kg/injection, schedule: Q07DX003 (ip), vehicle: carboxymethylcellulose (CMC), higher = larger tumour", "value": "24 % of control"}, {"measurement": "T/C", "setting": "endpoint: median tumor weight (est.), dose: 80.0 mg/kg/injection, schedule: Q07DX003 (ip), vehicle: Klucel (hydroxypropylcellulose) (HPC), higher = larger tumour", "value": "33 % of control"}]}, {"smiles": "O=c1[nH]cc(F)c(=O)[nH]1", "values": [{"measurement": "T/C", "setting": "endpoint: median survival time, dose: 16.2 mg/kg/injection, schedule: Q04DX002 (ip), vehicle: saline, higher = longer survival", "value": "119 % of control"}, {"measurement": "T/C", "setting": "endpoint: median survival time, dose: 21.1 mg/kg/injection, schedule: Q01DX010 (ip), vehicle: saline, higher = longer survival", "value": "199 % of control"}, {"measurement": "T/C", "setting": "endpoint: median survival time, dose: 34.0 mg/kg/injection, schedule: Q01DX010 (ip), vehicle: saline, higher = longer survival", "value": "199 % of control"}, {"measurement": "T/C", "setting": "endpoint: median survival time, dose: 36.0 mg/kg/injection, schedule: Q04DX003 (ip), vehicle: saline, higher = longer survival", "value": "119 % of control"}, {"measurement": "T/C", "setting": "endpoint: median survival time, dose: 42.0 mg/kg/injection, schedule: Q04DX004 (ip), vehicle: saline, higher = longer survival", "value": "122 % of control"}, {"measurement": "T/C", "setting": "endpoint: median survival time, dose: 60.0 mg/kg/injection, schedule: Q04DX004 (ip), vehicle: alkali diluted with saline, higher = longer survival", "value": "197 % of control and 204 % of control"}, {"measurement": "T/C", "setting": "endpoint: median survival time, dose: 73.0 mg/kg/injection, schedule: Q07DX003 (iv), vehicle: saline, higher = longer survival", "value": "124 % of control"}, {"measurement": "T/C", "setting": "endpoint: median survival time, dose: 75.0 mg/kg/injection, schedule: Q04DX002 (ip), vehicle: saline, higher = longer survival", "value": "233 % of control"}, {"measurement": "T/C", "setting": "endpoint: median survival time, dose: 100.0 mg/kg/injection, schedule: Q04DX004 (ip), vehicle: alkali diluted with saline, higher = longer survival", "value": "72 % of control"}, {"measurement": "T/C", "setting": "endpoint: median survival time, dose: 167.0 mg/kg/injection, schedule: Q04DX004 (ip), vehicle: alkali diluted with saline, higher = longer survival", "value": "57 % of control"}, {"measurement": "T/C", "setting": "endpoint: median tumor weight (est.), dose: 21.6 mg/kg/injection, schedule: Q04DX004 (ip), vehicle: saline, higher = larger tumour", "value": "65 % of control"}, {"measurement": "T/C", "setting": "endpoint: median tumor weight (est.), dose: 36.0 mg/kg/injection, schedule: Q04DX004 (ip), vehicle: saline, higher = larger tumour", "value": "38 % of control"}]}, {"smiles": "COc1cc(NCc2ccc3nc(N)nc(N)c3c2C)cc(OC)c1OC", "note": "(tested in a mixture with another compound)", "values": [{"measurement": "T/C", "setting": "endpoint: median tumor weight (est.), dose: 105.0 mg/kg/injection, schedule: Q07DX002 (ip), vehicle: water, higher = larger tumour", "value": "86 % of control"}, {"measurement": "T/C", "setting": "endpoint: median tumor weight (est.), dose: 157.0 mg/kg/injection, schedule: Q07DX002 (ip), vehicle: water, higher = larger tumour", "value": "100 % of control"}, {"measurement": "T/C", "setting": "endpoint: median tumor weight (est.), dose: 236.0 mg/kg/injection, schedule: Q07DX002 (ip), vehicle: water, higher = larger tumour", "value": "75 % of control"}]}, {"smiles": "CC(=O)OCC1C(=O)OCC1C(=O)N1Cc2cc3ccccc3nc2C1", "note": "(configuration not stated)", "values": [{"measurement": "T/C", "setting": "endpoint: median tumor weight (est.), dose: 4.0 mg/kg/injection, schedule: Q07DX002 (ip), vehicle: saline with Tween-80, higher = larger tumour", "value": "88 % of control"}, {"measurement": "T/C", "setting": "endpoint: median tumor weight (est.), dose: 8.0 mg/kg/injection, schedule: Q07DX003 (ip), vehicle: saline with Tween-80, higher = larger tumour", "value": "230 % of control"}, {"measurement": "T/C", "setting": "endpoint: median tumor weight (est.), dose: 16.0 mg/kg/injection, schedule: Q07DX003 (ip), vehicle: saline with Tween-80, higher = larger tumour", "value": "191 % of control"}, {"measurement": "T/C", "setting": "endpoint: median tumor weight (est.), dose: 32.0 mg/kg/injection, schedule: Q07DX003 (ip), vehicle: saline with Tween-80, higher = larger tumour", "value": "30 % of control"}, {"measurement": "T/C", "setting": "endpoint: median tumor weight (est.), dose: 64.0 mg/kg/injection, schedule: Q07DX002 (ip), vehicle: saline with Tween-80, higher = larger tumour", "value": "85 % of control and 102 % of control"}, {"measurement": "T/C", "setting": "endpoint: median tumor weight (est.), dose: 128.0 mg/kg/injection, schedule: Q07DX002 (ip), vehicle: saline with Tween-80, higher = larger tumour", "value": "115 % of control"}, {"measurement": "T/C", "setting": "endpoint: median tumor weight (est.), dose: 128.0 mg/kg/injection, schedule: Q07DX003 (ip), vehicle: saline with Tween-80, higher = larger tumour", "value": "107 % of control"}]}]}
